Assay results: ChEMBL document CHEMBL3044672, “N9- and N7-(Chloromethyl Phenymethyl)Chloropurine Derivatives from , '-Dichloroxylenes: Synthesis and Anticancer Activity” (2005)

Key:
Assay type in all cases: functional
[1] = test system: HT-29; assay: Cytotoxicity against Homo sapiens (human) HT-29 cells after 48 hr by sulforhodamine B assay; conditions: HT-29, 48 h
[2] = test system: NCI-H226; assay: Cytotoxicity against Homo sapiens (human) NCI-H226 cells after 48 hr by sulforhodamine B assay; conditions: NCI-H226, 48 h
[3] = test system: EKVX; assay: Cytotoxicity against Homo sapiens (human) EKVX cells after 48 hr by sulforhodamine B assay
[4] = test system: OVCAR-4; assay: Cytotoxicity against Homo sapiens (human) OVCAR4 cells after 48 hr by sulforhodamine B assay; conditions: OVCAR-4, 48 h
[5] = test system: SF-539; assay: Cytotoxicity against Homo sapiens (human) SF539 cells after 48 hr by sulforhodamine B assay; conditions: SF-539, 48 h
[6] = test system: SK-MEL-2; assay: Cytotoxicity against Homo sapiens (human) SK-MEL-2 cells after 48 hr by sulforhodamine B assay; conditions: SK-MEL-2, 48 h
[7] = test system: U-251; assay: Cytotoxicity against Homo sapiens (human) U251 cells after 48 hr by sulforhodamine B assay; conditions: U-251, 48 h
[8] = test system: K562; assay: Cytotoxicity against Homo sapiens (human) K562 cells after 48 hr by sulforhodamine B assay; conditions: K562, 48 h
[9] = test system: IGROV-1; assay: Cytotoxicity against Homo sapiens (human) IGROV1 cells after 48 hr by sulforhodamine B assay; conditions: IGROV-1, 48 h
[10] = test system: KM12; assay: Cytotoxicity against Homo sapiens (human) KM12 cells after 48 hr by sulforhodamine B assay; conditions: KM12, 48 h
[11] = Cytotoxicity against Homo sapiens (human) NCI-ADR-RES cells after 48 hr by sulforhodamine B assay
[12] = test system: UACC-257; assay: Cytotoxicity against Homo sapiens (human) UACC257 cells after 48 hr by sulforhodamine B assay; conditions: UACC-257, 48 h
[13] = test system: SN12C; assay: Cytotoxicity against Homo sapiens (human) SN12C cells after 48 hr by sulforhodamine B assay
[14] = test system: MDA-MB-231; assay: Cytotoxicity against Homo sapiens (human) MDA-MB-231 cells after 48 hr by sulforhodamine B assay; conditions: MDA-MB-231, 48 h
[15] = test system: HOP-62; assay: Cytotoxicity against Homo sapiens (human) HOP62 cells after 48 hr by sulforhodamine B assay; conditions: HOP-62, 48 h
[16] = test system: UACC-62; assay: Cytotoxicity against Homo sapiens (human) UACC62 cells after 48 hr by sulforhodamine B assay; conditions: UACC-62, 48 h
[17] = test system: MOLT-4; assay: Cytotoxicity against Homo sapiens (human) MOLT4 cells after 48 hr by sulforhodamine B assay; conditions: MOLT-4, 48 h
[18] = test system: OVCAR-3; assay: Cytotoxicity against Homo sapiens (human) OVCAR3 cells after 48 hr by sulforhodamine B assay; conditions: OVCAR-3, 48 h
[19] = test system: RXF 393; assay: Cytotoxicity against Homo sapiens (human) RXF393 cells after 48 hr by sulforhodamine B assay; conditions: RXF 393, 48 h
[20] = test system: A549; assay: Cytotoxicity against Homo sapiens (human) A549 cells after 48 hr by sulforhodamine B assay; conditions: A549, 48 h
[21] = test system: PC-3; assay: Cytotoxicity against Homo sapiens (human) PC3 cells after 48 hr by sulforhodamine B assay; conditions: PC-3, 48 h
[22] = test system: MDA-MB-435; assay: Cytotoxicity against Homo sapiens (human) MDA-MB-435 cells after 48 hr by sulforhodamine B assay; conditions: MDA-MB-435, 48 h
[23] = test system: COLO 205; assay: Cytotoxicity against Homo sapiens (human) COLO205 cells after 48 hr by sulforhodamine B assay; conditions: COLO 205, 48 h
[24] = test system: CAKI-1; assay: Cytotoxicity against Homo sapiens (human) Caki1 cells after 48 hr by sulforhodamine B assay; conditions: CAKI-1, 48 h
[25] = test system: SK-MEL-5; assay: Cytotoxicity against Homo sapiens (human) SK-MEL-5 cells after 48 hr by sulforhodamine B assay; conditions: SK-MEL-5, 48 h
[26] = test system: NCI-H23; assay: Cytotoxicity against Homo sapiens (human) NCI-H23 cells after 48 hr by sulforhodamine B assay; conditions: NCI-H23, 48 h
[27] = test system: NCI-H522; assay: Cytotoxicity against Homo sapiens (human) NCI-H522 cells after 48 hr by sulforhodamine B assay; conditions: NCI-H522, 48 h
[28] = test system: HCC 2998; assay: Cytotoxicity against Homo sapiens (human) HCC2998 cells after 48 hr by sulforhodamine B assay; conditions: HCC 2998, 48 h
[29] = test system: SF-268; assay: Cytotoxicity against Homo sapiens (human) SF268 cells assessed as cell growth at 10^-4 M after 48 hr by […] assay; conditions: SF-268, 48 h, read-out: Activity
[30] = test system: NCI-H322M; assay: Cytotoxicity against Homo sapiens (human) NCI-H322M cells after 48 hr by sulforhodamine B assay
[31] = test system: HCT-116; assay: Cytotoxicity against Homo sapiens (human) HCT116 cells after 48 hr by sulforhodamine B assay; conditions: HCT-116, 48 h
[32] = read-out: LC50 (the source's name)

Nc1nc(Cl)c2ncn(Cc3ccc(CCl)cc3)c2n1
TGI [1]: 27.5 µM | CC50 [1, 32]: 77.6 µM | TGI [2]: 37.1 µM | CC50 [2, 32]: > 100 µM | TGI [3]: 7.24 µM | CC50 [3, 32]: 28.2 µM | LC50 (concentration killing 50% of cells) [4]: 57.5 µM | TGI [4]: 30.2 µM | LC50 (concentration killing 50% of cells) [5]: 46.8 µM | TGI [5]: 10 µM | LC50 (concentration killing 50% of cells) [6]: 74.1 µM | TGI [6]: 28.8 µM | LC50 (concentration killing 50% of cells) [7]: 44.7 µM | TGI [7]: 12 µM | TGI [8]: > 100 µM | CC50 [8, 32]: > 100 µM | LC50 [9]: 53.7 µM | TGI [9]: 22.9 µM | TGI [10]: 22.9 µM | CC50 [10, 32]: 57.5 µM | LC50 (concentration killing 50% of cells) [11]: > 100 µM | TGI [11]: 26.9 µM | LC50 (concentration killing 50% of cells) [12]: > 100 µM | TGI [12]: 47.9 µM | LC50 (50% lethal concentration) [13]: 60.3 µM | TGI [13]: 26.9 µM | LC50 [14]: 91.2 µM | TGI [14]: 34.7 µM | TGI [15]: 27.5 µM | CC50 [15, 32]: 91.2 µM | LC50 (concentration causing 50% net cell kill) [16]: 53.7 µM | TGI [16]: 8.13 µM | TGI [17]: > 100 µM | CC50 [17, 32]: > 100 µM | LC50 [18]: 22.9 µM | TGI [18]: 5.5 µM | TGI [19]: 7.24 µM | CC50 [19, 32]: 35.5 µM | TGI [20]: 75.9 µM | CC50 [20, 32]: > 100 µM | LC50 (concentration causing 50% cell kill) [21]: 70.8 µM | TGI [21]: 25.1 µM | LC50 [22]: > 100 µM | TGI [22]: 42.7 µM | TGI [23]: 13.5 µM | CC50 [23, 32]: 42.7 µM | TGI [24]: 9.77 µM | CC50 [24, 32]: 34.7 µM | LC50 [25]: 63.1 µM | TGI [25]: 31 µM | TGI [26]: 30.2 µM | CC50 [26, 32]: 77.6 µM | GI50 [27]: 10.9 µM | TGI [27]: 25.7 µM | CC50 [27, 32]: 63.1 µM | TGI [28]: 8.91 µM | CC50 [28, 32]: 75.9 µM | growth at 100 µM [29]: 90% | TGI [30]: 42.7 µM | CC50 [30, 32]: 87.1 µM | TGI [31]: 15 µM | CC50 [31, 32]: 56.2 µM
